Data: the supplement of paper PMC9334596
Counter-ions that a name gives are not always drawn.

Tested on: mPer2Luc MEF
Test: PER2::LUC luminescence relative to vehicle control (fold of vehicle); higher = higher PER2::LUC reporter signal
Protocol: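 Secondary dose-response validation of 72 circadian-modulating compounds in mPer2Luc MEFs, threefold dilution series of six doses from 10 uM down to 0.04 uM. PER2::LUC luminescence read at 24 h and 30 h after treatment, normalised to vehicle (DMSO) control.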

[1] = time after treatment: 24-hour, concentration: 0.04μM
[2] = time after treatment: 24-hour, concentration: 0.37μM
[3] = time after treatment: 24-hour, concentration: 3.33μM
[4] = time after treatment: 24-hour, concentration: 10μM
[5] = time after treatment: 30-hour, concentration: 0.04μM
[6] = time after treatment: 30-hour, concentration: 0.37μM
[7] = time after treatment: 30-hour, concentration: 3.33μM
[8] = time after treatment: 30-hour, concentration: 10μM

`COc1ccccc1-c1cc(Nc2cccc(CS(N)(=O)=O)c2)ncn1` was tested, and the “PER2::LUC luminescence” value [1] was 0.961, the “PER2::LUC luminescence” value [2] was 0.968 and the “PER2::LUC luminescence” value [3] was 0.971. For the same compound, the “PER2::LUC luminescence” value [4] was 0.804, the “PER2::LUC luminescence” value [5] was 0.841 and the “PER2::LUC luminescence” value [6] was 0.933. The “PER2::LUC luminescence” value [7] was 0.964 and the “PER2::LUC luminescence” value [8] was 0.982.

With `COc1cc(OC)cc(C(=O)Nc2ccc(Cl)c(-c3nc4ccc(N(C)C)cc4[nH]3)c2)c1` [HhAntag] the “PER2::LUC luminescence” value [1] was 1.03, the “PER2::LUC luminescence” value [2] was 1.07 and the “PER2::LUC luminescence” value [3] was 1.03. The “PER2::LUC luminescence” value [4] was 1.12, the “PER2::LUC luminescence” value [5] was 0.988 and the “PER2::LUC luminescence” value [6] was 1.04. For the same compound, the “PER2::LUC luminescence” value [7] was 1.12 and the “PER2::LUC luminescence” value [8] was 1.44.

For `O=C(Nc1ccc(OC(F)(F)F)cc1)c1sccc1NCc1ccnc2ccccc12` [OSI-930], the “PER2::LUC luminescence” value [1] was 1.11, the “PER2::LUC luminescence” value [2] was 1.04 and the “PER2::LUC luminescence” value [3] was 1.37. The “PER2::LUC luminescence” value [4] was 1.43, the “PER2::LUC luminescence” value [5] was 1.14 and the “PER2::LUC luminescence” value [6] was 1.11. For the same compound, the “PER2::LUC luminescence” value [7] was 1.57 and the “PER2::LUC luminescence” value [8] was 1.91.

`C/C(=C\C(=O)Nc1ccccc1C(=O)O)c1ccc2ccccc2c1` [BIBR 1532] was tested, and the “PER2::LUC luminescence” value [1] was 0.94, the “PER2::LUC luminescence” value [2] was 0.97 and the “PER2::LUC luminescence” value [3] was 0.991. For the same compound, the “PER2::LUC luminescence” value [4] was 1.16, the “PER2::LUC luminescence” value [5] was 0.94 and the “PER2::LUC luminescence” value [6] was 0.891. For the same compound, the “PER2::LUC luminescence” value [7] was 0.98 and the “PER2::LUC luminescence” value [8] was 1.26.

With `CC[C@@H]1C(=O)N(C)c2cnc(Nc3ccc(C(=O)N[C@H]4CC[C@H](N5CCN(CC6CC6)CC5)CC4)cc3OC)nc2N1C(C)C` [BI-6727 (Volasertib)] the “PER2::LUC luminescence” value [1] was 0.71, the “PER2::LUC luminescence” value [2] was 0.565 and the “PER2::LUC luminescence” value [3] was 0.287. For the same compound, the “PER2::LUC luminescence” value [4] was 0.074, the “PER2::LUC luminescence” value [5] was 0.679 and the “PER2::LUC luminescence” value [6] was 0.574. For the same compound, the “PER2::LUC luminescence” value [7] was 0.326 and the “PER2::LUC luminescence” value [8] was 0.08.

With `O=C(O)CCCCC(CCSCc1ccccc1)SCc1ccccc1` (stereo not drawn) [CPI-613] the “PER2::LUC luminescence” value [1] was 1, the “PER2::LUC luminescence” value [2] was 0.991 and the “PER2::LUC luminescence” value [3] was 1.05. For the same compound, the “PER2::LUC luminescence” value [4] was 1.09, the “PER2::LUC luminescence” value [5] was 1.02 and the “PER2::LUC luminescence” value [6] was 0.999. The “PER2::LUC luminescence” value [7] was 1.04 and the “PER2::LUC luminescence” value [8] was 1.03.

With `NCC(=O)N1C[C@H](NC(=O)c2ccccc2)C[C@H]1C(=O)O` [GAP-134 (Hydrochloride)] the “PER2::LUC luminescence” value [1] was 0.994, the “PER2::LUC luminescence” value [2] was 0.988 and the “PER2::LUC luminescence” value [3] was 1.05. For the same compound, the “PER2::LUC luminescence” value [4] was 1.04, the “PER2::LUC luminescence” value [5] was 1.04 and the “PER2::LUC luminescence” value [6] was 1.04. For the same compound, the “PER2::LUC luminescence” value [7] was 1.06 and the “PER2::LUC luminescence” value [8] was 1.02.

In the case of `COc1cc(-c2nc3ccccc3s2)ccc1O` [YL-109], the “PER2::LUC luminescence” value [1] is reported as 1.05, the “PER2::LUC luminescence” value [2] is reported as 1.08 and the “PER2::LUC luminescence” value [3] is reported as 1.31. The “PER2::LUC luminescence” value [4] was 1.39, the “PER2::LUC luminescence” value [5] was 1.13 and the “PER2::LUC luminescence” value [6] was 1.16. For the same compound, the “PER2::LUC luminescence” value [7] was 1.42 and the “PER2::LUC luminescence” value [8] was 1.53.

`O=C(Nc1cccc(Cl)c1)c1ccccn1` was tested, and the “PER2::LUC luminescence” value [1] was 1.06, the “PER2::LUC luminescence” value [2] was 1.28 and the “PER2::LUC luminescence” value [3] was 1.51. For the same compound, the “PER2::LUC luminescence” value [4] was 1.81, the “PER2::LUC luminescence” value [5] was 1.06 and the “PER2::LUC luminescence” value [6] was 1.29. For the same compound, the “PER2::LUC luminescence” value [7] was 1.57 and the “PER2::LUC luminescence” value [8] was 1.92.

For `Cc1ccc2nc(NCCN)c3ncc(C)n3c2c1`, the “PER2::LUC luminescence” value [1] was 0.893, the “PER2::LUC luminescence” value [2] was 0.859 and the “PER2::LUC luminescence” value [3] was 0.768. For the same compound, the “PER2::LUC luminescence” value [4] was 0.028, the “PER2::LUC luminescence” value [5] was 0.841 and the “PER2::LUC luminescence” value [6] was 0.784. The “PER2::LUC luminescence” value [7] was 0.594 and the “PER2::LUC luminescence” value [8] was 0.03.

For `COc1cc(CCc2cc(NC(=O)c3ccc(N4CC(C)NC(C)C4)cc3)n[nH]2)cc(OC)c1` (stereo not drawn) [AZD4547], the “PER2::LUC luminescence” value [1] was 0.792, the “PER2::LUC luminescence” value [2] was 0.795 and the “PER2::LUC luminescence” value [3] was 0.679. For the same compound, the “PER2::LUC luminescence” value [4] was 0.329, the “PER2::LUC luminescence” value [5] was 0.796 and the “PER2::LUC luminescence” value [6] was 0.73. The “PER2::LUC luminescence” value [7] was 0.643 and the “PER2::LUC luminescence” value [8] was 0.278.

With `CC(C)NC[C@@H](C(=O)N1CCN(c2ncnc3c2[C@H](C)C[C@H]3O)CC1)c1ccc(Cl)cc1` [GDC-0068] the “PER2::LUC luminescence” value [1] was 0.898, the “PER2::LUC luminescence” value [2] was 0.743 and the “PER2::LUC luminescence” value [3] was 0.674. The “PER2::LUC luminescence” value [4] was 0.481, the “PER2::LUC luminescence” value [5] was 0.917 and the “PER2::LUC luminescence” value [6] was 0.776. The “PER2::LUC luminescence” value [7] was 0.619 and the “PER2::LUC luminescence” value [8] was 0.434.

With `O=c1cc(N2CCOCC2)oc2c(-c3cccc4c3sc3ccccc34)cccc12` the “PER2::LUC luminescence” value [1] was 0.952, the “PER2::LUC luminescence” value [2] was 0.951 and the “PER2::LUC luminescence” value [3] was 1.05. The “PER2::LUC luminescence” value [4] was 1.07, the “PER2::LUC luminescence” value [5] was 0.952 and the “PER2::LUC luminescence” value [6] was 0.931. For the same compound, the “PER2::LUC luminescence” value [7] was 1.08 and the “PER2::LUC luminescence” value [8] was 1.09.

In the case of `CCOC(=O)c1ccc(N(C)c2csc(-c3ccccc3)n2)cc1` [Neuropathiazol], the “PER2::LUC luminescence” value [1] is reported as 0.939, the “PER2::LUC luminescence” value [2] is reported as 1 and the “PER2::LUC luminescence” value [3] is reported as 1.04. For the same compound, the “PER2::LUC luminescence” value [4] was 1.1, the “PER2::LUC luminescence” value [5] was 0.913 and the “PER2::LUC luminescence” value [6] was 0.937. The “PER2::LUC luminescence” value [7] was 1 and the “PER2::LUC luminescence” value [8] was 1.08.

With `Cc1ccc(-n2nc(C(C)(C)C)cc2NC(=O)Nc2ccc(OCCN3CCOCC3)c3ccccc23)cc1` [BIRB 796 (Doramapimod)] the “PER2::LUC luminescence” value [1] was 0.968, the “PER2::LUC luminescence” value [2] was 0.966 and the “PER2::LUC luminescence” value [3] was 0.963. The “PER2::LUC luminescence” value [4] was 1.09, the “PER2::LUC luminescence” value [5] was 0.892 and the “PER2::LUC luminescence” value [6] was 0.941. The “PER2::LUC luminescence” value [7] was 0.924 and the “PER2::LUC luminescence” value [8] was 1.26.

`CNC(=O)c1cc(Oc2ccc(NC(=O)Nc3cc(C(C)(C)C)nn3-c3ccc4ncccc4c3)c(F)c2)ccn1` [DCC-2036] was tested, and the “PER2::LUC luminescence” value [1] was 1.27, the “PER2::LUC luminescence” value [2] was 1.3 and the “PER2::LUC luminescence” value [3] was 1.28. For the same compound, the “PER2::LUC luminescence” value [4] was 1.1, the “PER2::LUC luminescence” value [5] was 1.72 and the “PER2::LUC luminescence” value [6] was 1.81. For the same compound, the “PER2::LUC luminescence” value [7] was 1.74 and the “PER2::LUC luminescence” value [8] was 1.27.

For `C=CC(=O)Nc1cccc(Nc2nc(Nc3ccc(Oc4ccnc(C(=O)NC)c4)cc3)ncc2F)c1` [CNX-774], the “PER2::LUC luminescence” value [1] was 0.953, the “PER2::LUC luminescence” value [2] was 0.958 and the “PER2::LUC luminescence” value [3] was 0.839. The “PER2::LUC luminescence” value [4] was 0.44, the “PER2::LUC luminescence” value [5] was 1.01 and the “PER2::LUC luminescence” value [6] was 0.966. The “PER2::LUC luminescence” value [7] was 0.857 and the “PER2::LUC luminescence” value [8] was 0.586.

With `O=C(NC1CC1)c1cc(-c2cccs2)on1` [N-cyclopropyl-5-(thiophen-2-yl)-1,2-oxazole-3-carboxamide] the “PER2::LUC luminescence” value [1] was 1.3, the “PER2::LUC luminescence” value [2] was 1.33 and the “PER2::LUC luminescence” value [3] was 1.66. For the same compound, the “PER2::LUC luminescence” value [4] was 1.76, the “PER2::LUC luminescence” value [5] was 1.37 and the “PER2::LUC luminescence” value [6] was 1.44. The “PER2::LUC luminescence” value [7] was 1.79 and the “PER2::LUC luminescence” value [8] was 1.99.

For `Cc1ccc([C@@H]2O[C@H](CO)[C@@H](O)[C@H](O)[C@H]2O)cc1Cc1ccc(-c2ccc(F)cc2)s1` [Canagliflozin], the “PER2::LUC luminescence” value [1] was 1.01, the “PER2::LUC luminescence” value [2] was 0.998 and the “PER2::LUC luminescence” value [3] was 0.985. The “PER2::LUC luminescence” value [4] was 1.09, the “PER2::LUC luminescence” value [5] was 0.996 and the “PER2::LUC luminescence” value [6] was 0.996. For the same compound, the “PER2::LUC luminescence” value [7] was 0.964 and the “PER2::LUC luminescence” value [8] was 0.974.

For `O=c1sn(-c2cccc3ccccc23)c(=O)n1Cc1ccccc1` [Tideglusib], the “PER2::LUC luminescence” value [1] was 0.908, the “PER2::LUC luminescence” value [2] was 0.902 and the “PER2::LUC luminescence” value [3] was 0.864. The “PER2::LUC luminescence” value [4] was 0.879, the “PER2::LUC luminescence” value [5] was 0.9 and the “PER2::LUC luminescence” value [6] was 0.856. The “PER2::LUC luminescence” value [7] was 0.886 and the “PER2::LUC luminescence” value [8] was 0.891.

With `CCc1cncnc1N1CCN(Cc2nc3ccc(C(F)(F)F)cc3[nH]2)CC1` the “PER2::LUC luminescence” value [1] was 1.03, the “PER2::LUC luminescence” value [2] was 1 and the “PER2::LUC luminescence” value [3] was 1.01. For the same compound, the “PER2::LUC luminescence” value [4] was 1.06, the “PER2::LUC luminescence” value [5] was 1 and the “PER2::LUC luminescence” value [6] was 1.03. For the same compound, the “PER2::LUC luminescence” value [7] was 1.01 and the “PER2::LUC luminescence” value [8] was 1.03.
